Measured values as given in patent publication US20250172566A1, “SACCHARIDE SENSING SYSTEMS” (CARBOMETRICS LIMITED, priority 2022, published 2025).

Experiment: Fluorescent hydrogel phase glucose responsive assay (10 mM PBS, pH 7.4, 310 K)
Details: 20 mM D-glucose, GBM2 10 uM, FIM 1 uM
Description: The fluorescence spectrum of the corresponding hydrogel, already swollen in 200 μL of 10 mM PBS, in a well plate was recorded by exciting at the designated excitation frequency and monitoring at the typical emission maximum (Emmax). The PBS top solution was removed either by micropipette or by decanting onto an absorbent material. A 200 μL solution of D-glucose (in 10 mM PBS) at the required concentration was added to each hydrogel in the well plate and the system allowed to reach equilibrium. The emission spectra for each well were collected after this and compared to the original baseline emission, monitoring at the typical emission maximum (Emmax), and the percentage increase or decrease recorded. The change in emission was recorded for each hydrogel in the well plate (up to 96 individual hydrogel sensors) or an average of all wells was used. The hydrogel bound assays were then investigated for reproducibility by cycling with solutions of PBS or D-glucose. This was achieved by removal of the previous top solution (e.g. D-glucose) by micropipette or decanting onto an absorbent material and replacing with another solution (e.g. 10 mM PBS). […] Emission spectra acquired using a Clariostar plus plate reader.
(§1) Hydroxyethylmethacrylate (2.85 g), TEGDMA (0.15 g), VAZO-44 (0.12 mg), ethylene glycol (1.06 g) and water (1.33 g) were added to a glass vial and vortexed/sonicated until a homogeneous solution. Concentrated aliquots (<50 μL) of the appropriate GBM and FIM from pre-made stock solutions were added to give the required final concentrations of GBM and FIM (i.e. 50 μL of GBM stock solution at 1 mM gives a final GBM concentration of 10 μM in the pre-gel solution). A 50 μL aliquot of this GBM and FIM containing pre-gel solution was pipetted into each well of a transparent flat-bottomed polystyrene 96 well plate. 100 μL of n-butanol was layered on top of the pre-gel solution in each well plate and each well plate covered with a loose transparent well plate lid. The well plate was then placed in a nitrogen flushed desiccator, which was then placed into a pre-heated oven at 45° C. for 4 hours. The well plates were then removed from the oven, allowed to cool to RT and the top solution removed by decanting onto an absorbent material. The hydrogels were then washed and swelled by submerging in one litre of pure water or 10 mM PBS for 24 hours. Each well within the well plate containing hydrogel bound assay was then washed with D-glucose (50 mM) and then 10 mM PBS multiple times until the observed fluorescence emission stabilised to give a baseline emission value in 10 mM PBS. These hydrogels were then used for determining assay performance and reversibility studies.
as §1, with “(1.95” for “(2.85”, “PEGDA (0.57” for “TEGDMA (0.15”, “(0.04” for “(0.12”, “200 mM methyl-p-D-glucopyranoside (aqueous, 1.39” for “water (1.33”, “FIM.” for “FIM (i.e. 50 μL of GBM stock solution at 1 mM gives a final GBM concentration of 10 μM in the pre-gel solution).”, “hours.” for “hours. Each well within the well plate containing hydrogel bound assay was then washed with D-glucose (50 mM) and then 10 mM PBS multiple times until the observed fluorescence emission stabilised to give a baseline emission value in 10 mM PBS. These hydrogels were then used for determining assay performance and reversibility studies.”

[1] = Ex 470/Emmax 530 nm, hydrogel A (HEMA/TEGDMA)
[2] = Ex 470/Emmax 530 nm, hydrogel C (polyacrylamide/bis-acrylamide)

Structure (SMILES)	Change in Emmax for FIM at a particular D-glucose concentration [1]	Change in Emmax for FIM at a particular D-glucose concentration [2]	Change in Emmax for FIM at a particular D-glucose concentration (Ex 515/Emmax 550 nm, hydrogel A (HEMA/TEGDMA))	Change in Emmax for FIM at a particular D-glucose concentration (Ex 515/Emmax 550 nm, hydrogel C (polyacrylamide/bis-acrylamide))
C=CC(=O)NCCOCCOCCOCCOCCOCCOCCC(=O)NCCCC[C@@H](C(=O)Nc1ccc2c(c1)C(=O)OC21c2ccc(O)cc2Oc2cc(O)ccc21)n1cc(-c2ccc(CCO[C@@H]3O[C@H](C(=O)O)[C@@H](O)[C@H](O)[C@H]3O)cc2)nn1 [FIM25]	12%			
C=CC(=O)NCCOCCOCCOCCOCCOCCOCCC(=O)NCCCC[C@@H](C(=O)Nc1ccc(CCO[C@@H]2O[C@H](CO)[C@@H](O)[C@H](O)[C@H]2O)cc1)n1cc(CNC(=O)c2ccc3c(c2)C(=O)OC32c3ccc(O)cc3Oc3cc(O)ccc32)nn1 [FIM23]	10%	15%		
C=CC(=O)NCCOCCOCCOCCOCCOCCOCCC(=O)NCCCC[C@@H](C(=O)Nc1ccc2c(c1)C(=O)OC21c2ccc(O)cc2Oc2cc(O)ccc21)n1cc(-c2ccc(CCO[C@@H]3O[C@H](CO)[C@@H](O)[C@H](O)[C@H]3O)cc2)nn1 [FIM24]	8%			
C=CC(=O)NC(Cc1cn(CCOCCOc2ccc(CCO[C@@H]3O[C@H](CO)[C@@H](O)[C@H](O)[C@H]3O)cc2)nn1)C(=O)Nc1ccc2c(c1)C(=O)OC21c2ccc(O)cc2Oc2cc(O)ccc21 (stereo partly drawn) [FIM21]	0%			
C=CC(=O)NCCCC[C@@H](C(=O)Nc1ccc2c(c1)C(=O)OC21c2ccc(O)cc2Oc2cc(O)ccc21)n1cc(-c2ccc(CCO[C@@H]3O[C@H](CO)[C@@H](O)[C@H](O)[C@H]3O)cc2)nn1 [FIM22]	10%	15%		
C=CC(=O)NCCOCCOCCOCCOCCOCCOCCC(=O)NCCCC[C@@H](C(=O)Nc1ccc(CCO[C@@H]2O[C@H](CO)[C@@H](O)[C@H](O)[C@H]2O)cc1)n1cc(CNC(=O)c2ccc(C(=O)O)c(-c3c4cc(C)c(=NCC)cc-4oc4cc(NCC)c(C)cc34)c2)nn1 [FIM16]			45%	50%
